Laboratory results as given in patent EP2567959B1, “6-(4-HYDROXY-PHENYL)-3-STYRYL-1H-PYRAZOLO[3,4-B]PYRIDINE-4-CARBOXYLIC ACID AMIDE DERIVATIVES AS KINASE INHIBITORS” (SANOFI, priority 2011, dated 2013).

target: T1, human full-length recombinant PKC βII (Homo sapiens, UniProt P05771); assay: Determination of PKC βII inhibition (Caliper mobility-shift kinase assay, phosphorylation of fluorescein peptide substrate); assay type: biochemical; conditions: final compound concentration 1.14 µM (±0.15 µM); 60 min incubation at 32 °C
T1 construct: Active human full-length recombinant PKC βII; purchased Invitrogen GmbH, Darmstadt, Germany
Outline: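 Active full-length PKC βII in pH 7.4 Hepes with MgCl2, CaCl2, PS, DAG and Triton X-100; substrate/ATP mix held 3 µM fluorescein peptide and 120 µM ATP before addition. Reaction ran 60 min at 32 °C, stopped with EDTA. Mobility-shift fractional turnover gave % inhibition at 1.14 µM (±0.15 µM) final compound.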

T1 sequence (P05771 1-673 isoform P05771-2): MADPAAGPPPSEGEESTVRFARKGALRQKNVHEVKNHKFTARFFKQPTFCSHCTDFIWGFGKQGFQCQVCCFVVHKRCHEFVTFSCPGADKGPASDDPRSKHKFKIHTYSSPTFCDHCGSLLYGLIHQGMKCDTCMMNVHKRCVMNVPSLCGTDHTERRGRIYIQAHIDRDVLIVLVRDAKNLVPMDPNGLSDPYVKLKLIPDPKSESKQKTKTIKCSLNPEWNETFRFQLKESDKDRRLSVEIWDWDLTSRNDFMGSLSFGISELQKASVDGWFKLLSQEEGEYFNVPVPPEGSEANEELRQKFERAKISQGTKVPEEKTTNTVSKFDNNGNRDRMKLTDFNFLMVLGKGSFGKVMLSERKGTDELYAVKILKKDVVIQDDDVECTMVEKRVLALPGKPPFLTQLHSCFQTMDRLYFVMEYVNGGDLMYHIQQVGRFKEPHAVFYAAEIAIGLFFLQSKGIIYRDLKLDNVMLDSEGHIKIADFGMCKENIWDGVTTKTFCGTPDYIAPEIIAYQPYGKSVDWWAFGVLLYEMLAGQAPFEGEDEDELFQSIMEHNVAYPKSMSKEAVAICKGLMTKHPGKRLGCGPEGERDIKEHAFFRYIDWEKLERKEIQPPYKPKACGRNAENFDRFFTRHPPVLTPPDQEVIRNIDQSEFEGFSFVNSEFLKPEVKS

Row | inhibition at 1.14 µM [%] | SMILES
1 | 19 | O=C(c1cc(-c2ccc(O)cc2)nc2[nH]nc(/C=C/c3ccccc3)c12)N1CCN(C2CC2)CC1 [Example 85, (4-Cyclopropyl-piperazin-1-yl)-[6-(4-hydroxy-phenyl)-3-((E)-styryl)-1H-pyra-zolo[3,4-b]py-ridin-4-yl]-methanone]
2 | 61 | O=C(c1cc(-c2ccc(O)cc2)nc2[nH]nc(/C=C/c3ccc(Cl)c(Cl)c3)c12)N1CCNCC1 [Example 45, [3-[(E)-2-(3,4-Dichloro-phenyl)-vinyl]-6-(4-hydroxy-phenyl)-1H-pyrazolo[3,4-b]pyridin-4-yl]-piperazin-1-yl-methanone]
3 | 81 | O=C(c1cc(-c2ccc(O)cc2)nc2[nH]nc(CCC3CCCCC3)c12)N1CCNCC1 [Example 36, [3-(2-cyclohexyl-ethyl)-6-(4-hydroxy-phenyl)-1H-pyrazolo[3,4-b]pyridin-4-yl]-piperazin-1-yl-methanone]
4 | 94 | CC(C)c1ccc(/C=C/c2n[nH]c3nc(-c4ccc(O)cc4)cc(C(=O)N4CCNCC4)c23)cc1 [Example 51, {6-(4-Hydroxy-phenyl)-3-[(E)-2-(4-isopropyl-phenyl)-vinyl]-1H-pyrazolo[3,4-b]pyridin-4-yl}-piperazin-1-yl-methanone]
